# Patent EP4692089A1, “NITROGEN-CONTAINING HETEROCYCLIC COMPOUND AS AAK1 INHIBITOR” (Alicorn Pharmaceutical Co., Ltd., priority 2023, dated 2024)
# Values joined by “and” are separate entries in the source; they are usually repeats but may differ in a detail not shown here. Equal entries are not always repeated.
# Legend:
# [1] = Blood-brain distribution in DPNP model rats; details: SD, rat; for concentration at 6 h: oral; for Kp at 6 h: brain/plasma, po
# Experimental: Experimental objective: This experiment aims to investigate the analgesic effect of test compounds on streptozotocin (STZ)-induced peripheral neuropathic pain (DPNP) in diabetic rat models and the brain-blood distribution of the compounds associated with the efficacy, via single oral gavage (ig.) administration.
# After successful modeling, the baseline plantar pain threshold of the rats was tested using the Von Frey (UP-Down method) as the baseline pain threshold before administration, and the rats were evenly grouped according to their pain thresholds. The groups included a blank control group, a model group, a positive control group (1 mg/kg), a Compound 26 (0.5 mg/kg) group, and a Compound 26 (1 mg/kg) group. The next day, the rats were administered the vehicle or corresponding drugs. At 2 h, 3 h, 4 h, 5 h, and 6 h after administration, the pain threshold of the plantar region on the affected side of rats was determined using Von Frey filaments to calculate the pain threshold improvement rate of the test compounds against neuropathic pain in diabetic rats, and to observe the time-effect relationship. After the experiment, rats from groups G3-G5 (numbers 1-3 per group) were sacrificed, and plasma and brain tissue samples were collected for testing.
# [2] = test system: streptozotocin (STZ)-induced peripheral neuropathic pain (DPNP) in diabetic rat models; assay: Efficacy test in diabetic peripheral neuropathic pain (DPNP), Von Frey pain threshold; format: in vivo, SD rats; details: for MWT (g) After modeling: before administration; for MWT (g) 2h: 2 h after administration; for MWT (g) 4 h: 4 h after administration; for MWT (g) 5 h: 5 h after administration; for MWT (g) 6h: 6 h after administration; for duration of analgesia: time after administration
# Experimental: Experimental methods: After the adaptation period, the rats were tested for baseline plantar pain threshold using the Von Frey (Up-Down method) before modeling. Subsequently, except for the blank control group, all other rats were fasted for 16 hours with free access to water and then intraperitoneally injected with streptozotocin for modeling (65 mg/kg; 2 mL/kg). One week after modeling, blood was collected from the tail tip to detect blood glucose levels after a 4-hour fast. Rats with blood glucose levels higher than 16.7 mmol/L were considered diabetic.
# AAK1 = target: T1, AAK1 (Homo sapiens, UniProt Q2M2I8); assay: Effect on AP2M1 phosphorylation in 293T cells co-transfected with AAK1 and AP2M1 (Western blot, anti-p-AP2M1); format: cell-based; details: p-AP2M1 level, incubated 3 h
# T1 construct: HA; expressed in transfected cells; host or cells: 293T cells
# T1 sequence (Q2M2I8 whole entry): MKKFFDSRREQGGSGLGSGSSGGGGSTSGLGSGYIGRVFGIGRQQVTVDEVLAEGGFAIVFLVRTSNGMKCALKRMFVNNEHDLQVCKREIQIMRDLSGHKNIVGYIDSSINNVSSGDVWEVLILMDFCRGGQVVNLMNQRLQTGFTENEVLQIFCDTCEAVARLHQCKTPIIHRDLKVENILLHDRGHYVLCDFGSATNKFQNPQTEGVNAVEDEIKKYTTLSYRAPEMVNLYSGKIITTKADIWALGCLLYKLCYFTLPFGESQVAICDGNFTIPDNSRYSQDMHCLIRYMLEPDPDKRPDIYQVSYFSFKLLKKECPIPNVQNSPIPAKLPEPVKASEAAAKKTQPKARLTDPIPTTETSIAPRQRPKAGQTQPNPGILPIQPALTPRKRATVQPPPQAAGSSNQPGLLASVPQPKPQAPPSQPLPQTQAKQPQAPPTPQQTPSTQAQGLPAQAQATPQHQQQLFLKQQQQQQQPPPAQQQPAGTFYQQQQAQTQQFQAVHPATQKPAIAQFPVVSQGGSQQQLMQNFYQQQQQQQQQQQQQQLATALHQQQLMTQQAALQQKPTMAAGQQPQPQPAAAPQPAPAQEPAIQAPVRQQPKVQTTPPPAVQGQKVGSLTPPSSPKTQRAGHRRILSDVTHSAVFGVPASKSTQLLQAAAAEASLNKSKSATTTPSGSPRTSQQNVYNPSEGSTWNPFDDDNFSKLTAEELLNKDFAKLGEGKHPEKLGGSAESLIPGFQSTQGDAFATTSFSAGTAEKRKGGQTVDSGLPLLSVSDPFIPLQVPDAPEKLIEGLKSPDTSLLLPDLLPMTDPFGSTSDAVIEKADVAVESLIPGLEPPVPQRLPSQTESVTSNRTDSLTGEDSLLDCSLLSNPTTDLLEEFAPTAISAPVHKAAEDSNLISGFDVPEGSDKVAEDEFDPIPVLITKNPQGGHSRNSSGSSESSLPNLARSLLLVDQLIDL
# Source text: Experimental objective: The objective of this test example is to determine the effect of compounds on AP2M1 phosphorylation in cells.
# Background principle: Adaptor-associated kinase 1 (AAK1), also known as AP2-associated kinase 1, is a 104 kDa serine/threonine kinase. AAK1 interacts with the adaptor protein 2 (AP2) complex and phosphorylates the threonine residue in the micro-subunit of AP2 (AP2M1), thereby increasing its binding affinity for certain tyrosine-based or dileucine-based sorting signals of some membrane receptors. The inhibitory effect of compounds on AAK1 was evaluated by detecting the phosphorylation level of AP2M1 in cells, so as to screen candidate compounds.
# On the second day, each T25 flask was co-transfected with 16 µg of plasmids (1 µg of AAK1/HA/pIRES and 15 µg of Flag/AP2MI/pcDNA) using a Lip2000 transfection reagent. On the third day, the cells were digested and resuspended, centrifuged at 1000 rpm for 5 minutes, and then seeded into 24-well plates at 450 µl per well (2 × 10^5 cells/well). Gradient dilutions of the compounds to be tested were prepared, 50 µl was added to each well, mixed thoroughly, and incubated at 37°C for 3 h. DMSO was set as a control, and cells without plasmid transfection were set as a blank control. After incubation, the cells were collected and washed twice with PBS. The cells were lysed on ice for 30 minutes using a cell lysis buffer containing the protease inhibitor PMSF. The concentration of protein samples was determined using a BCA kit. Protein electrophoresis: The voltage for the stacking gel was set at 60 V, and that for the separating gel was set at 120 V. After electrophoresis, electrotransfer was initiated. Electrotransfer conditions were set at 250 mA for 2 h. Blocking with 5% BSA was performed for 1 h. A specific primary antibody, anti-p-AP2M1, was added, and incubation was carried out overnight at 4°C on a shaker. Washing with TBST was conducted 4 times, with 2.5 minutes each time. A secondary antibody was incubated on a shaker at room temperature for 1 h. Washing with TBST was conducted 4 times, with 2.5 minutes each time. ECL was used for development to detect the expression level of p-AP2M1. Western blot bands were processed and converted using Image J and GraphPad software to calculate IC50.
# IC50 (half maximal inhibitory concentration) refers to the half-inhibitory concentration of the measured antagonist. It can indicate the concentration of a certain drug or substance (inhibitor) that achieves half of the inhibition effect on certain biological processes (or certain substances involved in these processes, such as enzymes, cellular receptors, or microorganisms).
# AAK1 (30-330) protein = target: T2, AAK1 (30-330) protein (Homo sapiens, UniProt Q2M2I8); assay: AAK1 kinase assay (ADP generated, detected by HPLC); format: biochemical; details: 3.5 nM AAK1, 22 µM ATP, 25°C, 3 h
# T2 construct: (His)6x (N); TEV protease cleavage site (N); made in house; host or cells: Escherichia coli BL21(DE3)
# T2 sequence (Q2M2I8 30-330): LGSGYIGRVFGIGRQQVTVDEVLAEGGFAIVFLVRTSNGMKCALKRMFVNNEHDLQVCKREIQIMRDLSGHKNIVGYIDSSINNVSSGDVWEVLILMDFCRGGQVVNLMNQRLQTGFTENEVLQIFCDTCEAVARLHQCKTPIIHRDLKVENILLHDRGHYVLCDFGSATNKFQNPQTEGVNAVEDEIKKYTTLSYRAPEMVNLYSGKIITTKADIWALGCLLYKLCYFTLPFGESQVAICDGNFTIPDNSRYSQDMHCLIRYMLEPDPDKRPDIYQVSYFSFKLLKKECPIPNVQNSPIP
# Source text: Experimental objective: The objective of this test example is to test the effect of compounds on AAK1 kinase function.
# Background principle: AAK1 phosphorylates the threonine residue in the micro-subunit of AP2 (AP2M1). In this process, ATP provides phosphate groups to generate ADP. Therefore, the activity of AAK1 kinase can be evaluated by detecting the amount of ADP generated.
# Expression of AAK1 (30-330) protein: The AAK1 sequence (residues 30-330) was cloned into the pET24N vector with an N-terminal (His)6x tag and a tobacco etch virus (TEV) protease cleavage site. The constructed vector was transformed into Escherichia coli BL21(DE3). When the bacteria were cultured with shaking to reach an OD value of 0.6, 1 mM IPTG was added. […] The bacterial cells were collected and subjected to ultrasonic disruption. The supernatant was obtained by centrifugation, and the protein was purified using Ni-NTA. After dialysis, the concentration and purity of the protein were determined.
# The reaction mixture was incubated in a metal bath at 25°C for 3 h. The reaction was terminated by adding 1% SDS, and the amount of ADP generated was detected by HPLC. IC50 values were calculated using GraphPad software.
compound,measurement,setting,value
"CC(C)C[C@](C)(N)COc1ccc(-c2c[nH]c3ncc(F)cc23)nc1C(F)F [Compound 26, (S)-1-{[2-(difluoromethyl)-6-(5-fluoro-1H-pyrrolo[2,3-b]pyridin-3-yl)pyridin-3-yl]oxy}-2,4-dimethylpentan-2-amine]",concentration at 6 h,"[1]; brain, 0.5 mg/kg",62.5 ng/mL and 688 ng/g
same,concentration at 6 h,"[1]; brain, 1 mg/kg",120 ng/mL and 1320 ng/g
same,Kp at 6 h,[1]; 0.5 mg/kg,17.9
same,Kp at 6 h,[1]; 1 mg/kg,17.6
same,concentration at 6 h,"[1]; plasma, 0.5 mg/kg",38.5 ng/mL
same,concentration at 6 h,"[1]; plasma, 1 mg/kg",75.3 ng/mL
same,MWT (g) After modeling,"[2]; 0.5 mg/kg group, x±s, n=5",6.97 ± 2.16 g
same,Pain threshold improvement rate 2h,[2]; 0.5 mg/kg single ig.,50.87
same,MWT (g) 2h,"[2]; 0.5 mg/kg single ig., x±s, n=5",7.50 ± 2.37 g
same,Pain threshold improvement rate 3 h,[2]; 0.5 mg/kg single ig.,54.93
same,MWT (g) 3 h,"[2]; 0.5 mg/kg single ig., 3 h after administration, x±s, n=5",9.63 ± 3.40 g
same,Pain threshold improvement rate 4h,[2]; 0.5 mg/kg single ig.,35.29
same,MWT (g) 4 h,"[2]; 0.5 mg/kg single ig., x±s, n=5",6.23 ± 2.10 g
same,Pain threshold improvement rate 5 h,[2]; 0.5 mg/kg single ig.,28.18
same,MWT (g) 5 h,"[2]; 0.5 mg/kg single ig., x±s, n=5",5.61 ± 3.00 g
same,Pain threshold improvement rate 6h,[2]; 0.5 mg/kg single ig.,24.02
same,MWT (g) 6h,"[2]; 0.5 mg/kg single ig., x±s, n=5",4.82 ± 1.07 g
same,duration of analgesia,[2]; 0.5 mg/kg,≤ 4 h
same,MWT (g) After modeling,"[2]; 1 mg/kg group, x±s, n=5",7.28 ± 2.09 g
same,Pain threshold improvement rate 2h,[2]; 1 mg/kg single ig.,71.05
same,MWT (g) 2h,"[2]; 1 mg/kg single ig., x±s, n=5",12.72 ± 3.12 g
same,Pain threshold improvement rate 3 h,[2]; 1 mg/kg single ig.,58.89
same,Pain threshold improvement rate 4h,[2]; 1 mg/kg single ig.,59.53
same,MWT (g) 4 h,"[2]; 1 mg/kg single ig., x±s, n=5",9.96 ± 4.93 g
same,Pain threshold improvement rate 5 h,[2]; 1 mg/kg single ig.,20.88
same,MWT (g) 5 h,"[2]; 1 mg/kg single ig., x±s, n=5",5.10 ± 1.55 g
same,Pain threshold improvement rate 6h,[2]; 1 mg/kg single ig.,9.51
same,MWT (g) 6h,"[2]; 1 mg/kg single ig., x±s, n=5",4.05 ± 0.66 g
same,duration of analgesia,[2]; 1 mg/kg,≤ 4 h
same,IC50,AAK1,10 to 100 nM
same,IC50,AAK1 (30-330) protein,86.3 nM
